Data taken from patent publication EP1359152B1, “Diazabicyclic derivatives as nicotinic acetylcholine receptor ligands” (ABBOTT LABORATORIES, priority 1999, dated 2000).
Structures can show the parent of a compound that is named as a salt. Where two headings read alike, the source gives them in different places.

Assays:
[1] = target: T1, neuronal nicotinic acetylcholine receptors (Rattus norvegicus, UniProt P09483+P12390); assay: [3H]-cytisine binding to neuronal nicotinic acetylcholine receptors, crude synaptic membranes from whole rat brain
T1 construct: crude synaptic membrane preparations from whole rat brain; from tissue; host or cells: whole rat brain, crude synaptic membranes
T1 sequence (P09483 31-630): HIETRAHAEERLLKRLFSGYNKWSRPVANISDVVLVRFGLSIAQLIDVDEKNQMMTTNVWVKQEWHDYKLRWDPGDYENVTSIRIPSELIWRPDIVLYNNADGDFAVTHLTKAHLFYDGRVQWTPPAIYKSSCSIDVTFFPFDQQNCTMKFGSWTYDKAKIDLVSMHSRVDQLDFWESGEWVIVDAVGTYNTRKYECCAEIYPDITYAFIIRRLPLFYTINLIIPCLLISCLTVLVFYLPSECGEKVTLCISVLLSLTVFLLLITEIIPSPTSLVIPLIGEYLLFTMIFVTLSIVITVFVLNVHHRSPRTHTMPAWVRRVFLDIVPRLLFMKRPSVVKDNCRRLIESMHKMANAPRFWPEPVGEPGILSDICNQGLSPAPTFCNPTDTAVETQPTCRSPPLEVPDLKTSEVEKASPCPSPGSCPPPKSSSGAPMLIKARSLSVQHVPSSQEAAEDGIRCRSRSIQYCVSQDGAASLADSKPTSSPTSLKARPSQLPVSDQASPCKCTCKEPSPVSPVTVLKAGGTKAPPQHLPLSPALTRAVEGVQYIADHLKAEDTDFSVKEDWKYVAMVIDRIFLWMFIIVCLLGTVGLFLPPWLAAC
T1 sequence (P12390 25-500): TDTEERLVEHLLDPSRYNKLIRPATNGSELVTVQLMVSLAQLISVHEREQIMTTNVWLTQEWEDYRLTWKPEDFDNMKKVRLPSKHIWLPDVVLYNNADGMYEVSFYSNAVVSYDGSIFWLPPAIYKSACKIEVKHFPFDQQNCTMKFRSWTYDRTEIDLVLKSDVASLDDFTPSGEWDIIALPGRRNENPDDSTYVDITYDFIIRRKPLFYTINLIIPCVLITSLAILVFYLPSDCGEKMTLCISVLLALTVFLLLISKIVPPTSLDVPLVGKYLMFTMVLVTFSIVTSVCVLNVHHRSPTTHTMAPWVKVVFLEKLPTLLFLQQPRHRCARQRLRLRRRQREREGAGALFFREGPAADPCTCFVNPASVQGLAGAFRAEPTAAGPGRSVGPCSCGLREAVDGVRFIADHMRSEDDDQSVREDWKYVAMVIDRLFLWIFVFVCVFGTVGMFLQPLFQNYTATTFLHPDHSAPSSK
Protocol: The In Vitro protocols for determination of nicotinic acetylcholine channel receptor binding potencies of ligands were determined as follows.
Washed membranes were stored at-80 °C prior to use. Frozen aliquots were slowly thawed and resuspended in 20 volumes of buffer (containing: 120 mM NaCl, 5 mM KCI, 2 mM MgCl2, 2 mM CaCl2 and 50 mM Tris-Cl, pH 7.4 @4 °C). After centrifuging at 20,000x g for 15 minutes, the pellets were resuspended in 30 volumes of buffer.
The test compounds were dissolved in water to make 10 mM stock solutions. Each solution was then diluted (1:100) with buffer (as above) and further taken through seven serial log dilutions to produce test solutions from 10^-5 to 10^-11 M.
Samples were incubated for 60 minutes at 4 °C, then rapidly filtered through Whatman GF/B filters presoaked in 0.5% polyethyleneimine using 3 x 4 mL of ice-cold buffer. The filters are counted in 4 mL of Ecolume® (ICN). Nonspecific binding was determined in the presence of 10 µM (-)-nicotine and values were expressed as a percentage of total binding. IC50 values were determined with the RS-1 (BBN) nonlinear least squares curve-fitting program and IC50 values were converted to Ki values using the Cheng and Prusoff correction (Ki=IC50/(1+[ligand]/Kd of ligand).

mice = assay: Mouse hot plate paradigm (analgesic effect, latency until tenth jump); type: in vivo; settings: ip, 0.5 h, minimally effective dose among doses tested, intraperitoneal, dosed 30 minutes prior to testing, hot plate 55 °C, cut-off 180 seconds, increase in tenth jump latency relative to control, read-out: (MED)
Protocol: An in vivo protocol was utilized to determine the effectiveness of nicotinic acetylcholine receptor ligands as analgesic agents in the mouse hot plate paradigm.
Separate groups of mice, (n=8/group) were utilized for each dose group. All drugs were administered by the intraperitoneal route of administration. Test drugs were dissolved in water to make a 6.2 mM stock solution. Animals were dosed with this solution (10 mL/kg body weight) for a 62 micromol/kg dose. Lower doses were administered similarly, following serial dilution of the stock solution in half-log increments. Animals were dosed 30 minutes prior to testing in the hot plate. The hotplate utilized was an automated analgesia monitor (Model #AHP16AN, Omnitech Electronics, Inc. of Columbus, Ohio). The temperature of the hot plate was maintained at 55 °C and a cut-off time of 180 seconds was utilized. Latency until the tenth jump was recorded as the dependent measure. An increase in the tenth jump latency relative to the control was considered an effect.

[2] = [3H]-CYT 1.25 nM, 60 minutes at 4 °C, whole rat brain membranes, Ki from IC50 by Cheng and Prusoff correction, read-out: Average Ki

SMILES	Ki [1] [nM]	minimal effective dose (mice) [µmol/kg]	Ki [1, 2] [nM]
CN1C2CCC1CN(c1cccnc1)CC2 (centres unmarked) [Example 37, 9-methyl-3-(3-pyridinyl)-3,9-diazabicyclo[4.2.1]nonane 4-methylbenzenesulfonate]	0.55	6.2	
Cc1ccc(N2C[C@@H]3C[C@H]2CN3)cn1 [Example 23, (1S,4S)-2-(6-methyl-3-pyridinyl)-2,5-diazabicyclo[2.2.1]heptane 4-methylbenzenesulfonate]	1.6	62	
N#Cc1cncc(N2C[C@H]3C[C@@H]2CN3)c1 [Example 44, (1R,4R)-2-(5-cyano-3-pyridinyl)-2,5-diazabicyclo[2,2,1]heptane 4-methylbenzenesulfonate]	0.03	0.62	
Cc1cc(N2C[C@H]3C[C@@H]2CN3)cnc1Cl [Example 47, (1R,4R)-2-(6-chloro-5-methyl-3-pyridinyl)-2,5-diazabicyclo[2.2.1]heptane 4-methylbenzenesulfonate]	0.009	6.2	
c1cncc(N2CCC3CCC(C2)N3)c1 (centres unmarked) [Example 41, 3-(3-pyridinyl)-3,9-diazabicyclo[4.2,1]nonane bis(4-methylbenzenesulfonate)]	0.03	6.2	
Clc1ccc(N2CC3CNCC(C3)C2)cn1 [Example 58, 3-(6-Chloro-3-pyridinyl)-3,7-diazabicyclo[3.3.1]nonane 4-methylbenzenesulfonate]	0.02	0.62	
N#CCN1C[C@H]2C[C@@H]1CN2c1ccc(Cl)nc1 [Example 27, (1R,4R)-2-(6-chloro-3-pyridinyl)-5-cyanomethyl-2,5-diazabicyclo[2.2.1]heptane 4-methylbenzenesulfonate]	0.05	1.9	
Clc1ccc(N2C[C@H]3C[C@@H]2CN3)cn1 [Example 15, (1R,4R)-2-(6-chloro-3-pyridinyl)-2,5-diazabicyclo[2.2.1]heptane 4-methylbenzenesulfonate]	0.01	0.62	
COc1ccc(N2C[C@H]3C[C@@H]2CN3)cn1 [Example 46, (1R,4R)-2-(6-methoxy-3-pyridinyl)-2,5-diazabicyclo[2.2.1]heptane 4-methylbenzenesulfonate]	0.25	6.2	
Fc1ccc(N2C[C@H]3C[C@@H]2CN3)cn1 [Example 33, (1R,4R)-2-(6-fluoro-3-pyridinyl)-2,5-diazabicyclo[2.2.1]heptane 4-methylbenzenesulfonate]	0.03	0.19	
Cc1cc(N2C[C@@H]3C[C@H]2CN3)nnc1Cl [Example 4, (1S,4S)-2-(6-chloro-5-methyl-3-pyridazinyl)-2,5-diazabicyclo[2,2,1]heptane bis(4-methylbenzenesulfonate)]	3.8	62	
Brc1cncc(N2C[C@@H]3C[C@H]2CN3)c1 [Example 31, (1S,4S)-2-(5-bromo-3-pyridinyl)-2,5-diazabicyclo[2.2.1]heptane 4-methylbenzenesulfonate]	1.2	62	
Clc1ccc(N2CCC3CCC(C2)N3)cn1 (centres unmarked) [Example 36, 3-(6-chloro-3-pyridinyl)-3,9-diazabicyclo[4.2.1]nonane hydrochloride]	0.06	1.9	
Oc1cncc(N2C[C@@H]3C[C@H]2CN3)c1 [Example 22, (1S,4S)-2[5-hydroxy-3-pyridinyl]-2,5-diazabicyclo[2.2.1]heptane 4-methylbenzenesulfonate]	4.1	19	
c1cncc(CN2C[C@H]3C[C@@H]2CN3)c1 [Example 20, (1R,4R)-2-(3-pyridinylmethyl)-2,5-diazabicyclo[2.2.1]heptane trihydrobromide]	52	62	
Fc1ccc(N2C[C@@H]3C[C@H]2CN3)cn1 [Example 30, (1S,4S)-2-(6-fluoro-3-pyridinyl)-2,5-diazabicyclo[2.2.1]heptane bis(4-methylbenzenesulfonate)]	0.17	1.9	
Oc1cncc(N2C[C@H]3C[C@@H]2CN3)c1 [Example 39, (1R,4R)-2-(5-hydroxy-3-pyridinyl)-2,5-diazabicyclo[2.2.1]heptane 4-methylbenzenesulfonate]	0.04	62	
Clc1cc(N2C[C@H]3C[C@@H]2CN3)cnc1Cl [Example 48, (1R,4R)-2-(5,6-dichloro-3-pyridinyl)-2,5-diazabicyclo[2.2.1]heptane 4-methylbenzenesulfonate]	0.01	6.2	
Clc1ccc(N2C[C@@H]3C[C@H]2CN3)cn1 [Example 1, (1S,4S)-2-(6-chloro-3-pyridinyl)-2,5-diazabicyclo[2,2,1]heptane 4-methylbenzenesulfonate]	0.041	6.2	
c1cnnc(N2C[C@H]3C[C@@H]2CN3)c1 [Example 25, (1R,4R)-2-(3-pyridazinyl)-2,5-diazabicyclo[2,2,1]heptane 4-methylbenzenesulfonate]	0.4	19	
c1cncc(N2CC3CNCC(C3)C2)c1 [Example 57, 3-(3-pyridinyl)-3,7-diazabicyclo[3.3.1]nonane bis(4-methylbenzenesulfonate)]		1.9	0.02
Clc1ccc(N2CCC3CC2CN3)cn1 (centres unmarked) [Example 35, 2-(6-chloro-3-pyridinyl)-2,6-diazabicyclo[3.2.1]octane trihydrochloride]		19	1.5
